Reference: the NIST ThermoML archive (doi:10.1016/j.jct.2010.05.002)

Experiment: molar heat capacity at constant pressure
Conditions: 101.33 kPa, Crystal, Vacuum adiabatic calorimetry

CC(C)(C)c1ccc(-c2ccccc2)cc1 [4-(1,1-dimethylethyl)-1,1'-biphenyl]
Conditions | molar heat capacity at constant pressure [J/K/mol]
8.3 K | 2.522
8.57 K | 2.757
9.11 K | 3.228
9.63 K | 3.765
9.89 K | 4.01
11.01 K | 5.257
11.39 K | 5.703
11.77 K | 6.312
12.15 K | 6.72
12.53 K | 7.182
12.92 K | 7.664
13.28 K | 8.377
13.65 K | 8.833
14.02 K | 9.436
14.39 K | 9.935
14.75 K | 10.39
15.11 K | 10.96
15.48 K | 11.37
15.83 K | 12.26
16.19 K | 12.78
16.55 K | 13.21
16.91 K | 13.77
17.27 K | 14.49
17.62 K | 15.23
17.98 K | 15.86
18.33 K | 16.18
18.68 K | 16.71
19.03 K | 16.98
19.38 K | 17.88
19.73 K | 18.48
20.08 K | 19.01
20.76 K | 20.23
21.53 K | 21.57
22.31 K | 22.77
23.08 K | 23.92
23.85 K | 25.18
24.62 K | 26.43
25.38 K | 27.38
26.14 K | 28.32
26.9 K | 30.11
27.66 K | 31.35
28.42 K | 32.53
29.17 K | 33.54
29.93 K | 34.42
30.68 K | 35.96
31.43 K | 37.32
32.19 K | 38.43
32.96 K | 38.73
33.71 K | 40.37
34.46 K | 41.38
35.21 K | 42.08
35.96 K | 43.44
36.71 K | 44.59
37.46 K | 45.86
38.21 K | 46.57
38.96 K | 47.65
39.71 K | 48.45
40.46 K | 49.16
41.21 K | 50.62
41.95 K | 51.64
42.7 K | 52.5
43.45 K | 53.06
44.2 K | 53.77
44.95 K | 55.03
45.69 K | 55.67
46.44 K | 57.1
47.19 K | 57.29
47.93 K | 58.61
48.68 K | 59.76
49.43 K | 60.29
50.18 K | 60.84
50.92 K | 61.9
51.67 K | 62.56
52.42 K | 63.33
53.16 K | 64.3
53.91 K | 65.39
54.65 K | 65.94
55.4 K | 66.72
56.14 K | 67.31
56.89 K | 68.21
57.64 K | 68.36
58.38 K | 69.38
59.12 K | 69.98
59.86 K | 70.84
60.61 K | 71.8
61.35 K | 72.22
62.09 K | 73.3
62.83 K | 73.97
63.57 K | 75.16
64.31 K | 75.92
65.06 K | 76.6
65.8 K | 77.49
66.54 K | 77.97
67.27 K | 79.07
68.02 K | 79.18
68.76 K | 79.62
69.49 K | 80.06
70.22 K | 80.55
71.11 K | 81.26
72.16 K | 81.97
73.2 K | 83.77
74.24 K | 85.78
75.29 K | 87.62
76.33 K | 89.61
77.37 K | 91.7
78.41 K | 93.86
78.6 K | 93.38
79.46 K | 95.29
79.89 K | 95.59
80.5 K | 96.68
80.92 K | 97.16
81.55 K | 97.38
81.96 K | 98.92
82.59 K | 99.16
82.99 K | 99.71
83.63 K | 100.81
84.02 K | 101.38
84.67 K | 102.6
85.05 K | 103.37
85.71 K | 104.76
86.08 K | 105.1
87.11 K | 107.71
88.14 K | 109.06
89.18 K | 109.08
90.21 K | 110.43
91.24 K | 111.94
92.26 K | 112.49
93.29 K | 113.67
94.32 K | 115.2
95.34 K | 116.2
96.36 K | 117.24
97.39 K | 117.75
98.41 K | 119.69
99.44 K | 121.4
100.46 K | 120.13
101.48 K | 122.02
102.5 K | 123.38
103.53 K | 123.38
104.55 K | 124.78
105.57 K | 125.7
106.59 K | 125.94
107.6 K | 126.55
108.62 K | 127.46
109.63 K | 129.07
110.65 K | 130.3
111.66 K | 130.29
112.67 K | 130.99
113.68 K | 131.82
114.69 K | 132.86
115.71 K | 133.48
116.72 K | 133.98
117.73 K | 134.55
118.74 K | 135.11
119.75 K | 136.16
120.76 K | 136.83
121.76 K | 137.18
122.77 K | 138
123.77 K | 138.81
124.78 K | 139.92
125.78 K | 140.34
126.79 K | 141.2
127.78 K | 141.96
128.78 K | 142.63
129.78 K | 143.1
130.78 K | 144.73
131.78 K | 145.34
132.78 K | 145.71
133.78 K | 146.29
134.78 K | 147.05
135.77 K | 147.52
136.77 K | 148.34
137.77 K | 149.37
138.76 K | 149.38
139.75 K | 150.91
140.74 K | 152.15
141.74 K | 153
142.73 K | 153.45
143.7 K | 153.84
144.69 K | 154.76
145.68 K | 154.88
146.67 K | 155.86
147.65 K | 157.44
148.64 K | 158.13
149.63 K | 159.37
150.61 K | 159.11
151.59 K | 161.68
152.58 K | 161.75
153.56 K | 162.27
154.54 K | 162.57
155.52 K | 163.19
